Data published in US20240025856A1, “1,2,3,4-TETRAHYDROQUINOLINE DERIVATIVES AS INHIBITORS OF THE YAP/TAZ-TEAD ACTIVATION FOR TREATING CANCER” (KATHOLIEKE UNIVERSITEIT LEUVEN, priority 2020, published 2024).
pEC50, pIC50: −log10 of the molar value.

Tests used:
[1] = system: YAP/TAZ-TEAD transcription; test: Reporter gene assay for measuring the inhibition of YAP/TAZ-TEAD transcription (TEAD-responsive element luciferase reporter in Hek293T cells); assay type: cell-based; conditions: Homo sapiens, HEK-293T, 24 h, Hek293T cells transiently transfected with TEAD-responsive element luciferase reporter; 24 hours incubation
Summary of the method: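 Hek293T cells transiently transfected with a TEAD-responsive element luciferase reporter, plated onto pre-diluted compounds and incubated 24 h at 37 °C/5% CO2. Luminescence read after SteadyLite addition; % inhibition from RLU relative to vehicle (0%) and a positive control inhibitor (100%), giving IC50.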

[2] = system: NCI-1H226; test: Mesothelioma cell line proliferation assay, H226 (ATPlite); assay type: cell-based; conditions: Homo sapiens, NCI-H226, 144 h, 6 days with compound
Description: (§1) Mesothelioma cell lines, NCI-1H226 and NCI-1H2052 (all sourced from the ATCC cell culture collection) are plated in 96-well plates (Corning® 96 Well White Polystyrene Microplate clear flat bottom, white polystyrene (TC-Treated)), at 1500 cells/well in full medium (RPMI 1640 ATCC modification with L-glutamine, HEPES, Phenol Red, Sodium Pyruvate, High glucose, Low sodium bicarbonate and 10% fetal bovine serum). Cells are incubated overnight at 37° C. in an incubator with 5% C02. Then compounds, dissolved in DMSO, are added in dose-response. Cells are incubated with compound dilutions for another 6 days at 37° C. in an incubator with 5% C02. Cell viability is quantitated using the ATPlite kit (Perkin-Elmer) and the luminescence is read-out using an Envision instrument (Perkin-Elmer). The amount of relative light units produced using the ATPlite kit is used to calculated percent of inhibition.
(§2) The activities of some example compounds are depicted in the table below. The activity ranges A, B and C refer to EC50 values in the mesothelioma cell line proliferation assay as described as follows: “A”: EC50<1 μM; “B”: 1 μM s EC50≤10 μM and “C”: EC50≥10 μM; NT: not tested.

[3] = system: NCI-1H2052; test: Mesothelioma cell line proliferation assay, H2052 (ATPlite); assay type: cell-based; conditions: Homo sapiens, NCI-H2052, 144 h, 6 days with compound, read-out: H2025 (EC50)
Description: as §1, §2

[4] = system: NCI-H226 tumor cells; test: In vivo efficacy in a subcutaneous human lung cancer xenograft model (NCI-H226 mesothelioma); design: species or system Female BALB/c Nude Mice; conditions: 100 mg/kg, p.o., BID × 21 days
Description: The NCI-H226 tumor cells were maintained in vitro with RPMI-1640 medium supplemented with 10% fetal bovine serum at 37° C. in an atmosphere of 5% CO2 in air. The cells in exponential growth phase were harvested and the cell numbers were quantitated by hemocytometer and cell viability was quantified by Trypan Blue counting before tumor inoculation. Balb/c nude mouse were inoculated with subcutaneously in the right front flank regions with 1×10^7 of NCI-H226 tumor cells in 0.1 mL of PBS mixed with 0.1 ml of Matrigel (1:1) for tumor development. All animals were randomized based on the tumor sizes as well as body weights and randomly allocated to the different study groups (8 mice per group). The randomization started when the mean tumor size at the right rear flank region had reached approximately 172 mm^3. The date of randomization was denoted as Day 0.
Cpd. No. 084 was formulated in Vehicle 1 (PEG400 (40%)+PG (30%)+WFI (30%)) as a 10 mg/ml solution, and dosed orally, twice daily, using 10 μl/g (final dose is 100 mg/kg) for 21 days. Cpd. No. 001 was formulated in Vehicle 2 (PEG400 (65%)+PG (20%)+WFI (15%)) as a 10 mg/ml solution, and dosed orally, twice daily, using 10 μl/g (final dose is 100 mg/kg) for 21 days. After tumor cell inoculation, the animals were checked daily for morbidity and mortality. At the time of routine monitoring, the animals were checked for any effects of tumor growth and treatments on behavior such as mobility, food and water consumption, body weight gain/loss (body weight was measured at least two times per week), and any other abnormalities. Mortality and observed clinical signs were recorded for individual animals. Tumor volumes were measured at least two times weekly in two dimensions using a caliper, and the volume was expressed in mm^3 using the formula: V=(L×W×W)/2, where V is tumor volume, L is tumor length (the longest tumor dimension) and W is tumor width (the longest tumor dimension perpendicular to L).
Tumor growth inhibition (TGI) was used as an indicator of antitumor activities, and was calculated from the relative tumor volumes of the control and treatment groups due to the variance of tumor volumes among groups at Day 0. TGI (%)=(1-T/C)×100%; T/C=MTVt/MTVc, MTVt: mean tumor volume in the treatment groups at a specific measurement day, MTVc: mean tumor volume in the control group at a specific measurement day. Moreover, the difference of TGIs between control and treatment groups was analyzed at a measurement day when all or most of the mice in the control groups were alive. In addition, body weight changes over time in each group were used as an index to evaluate the tolerability of test drugs, and were calculated from the average percentage of body weight changes of each individual mouse relative to their initial body weight at randomization using the following formula: group BW %=mean of ((BWt−BW0)/BW0×100%), BWt: body weight at Day t, BW0: body weight at Day 0.
To compare relative tumor volumes of different groups at a pre-specified day, we first used Bartlett's test to check the assumption of homogeneity of variance across all groups. When the p-value of Bartlett's test is >0.05, we run one-way ANOVA to test overall equality of means across all groups. If the p-value of the one-way ANOVA is <0.05, we further perform post hoc testing by running Tukey's HSD (honest significant difference) tests for all pairwise comparisons, and Dunnett's tests for comparing each treatment group with the vehicle group. When the p-value of Bartlett's test is <0.05, we run Kruskal-Wallis test to test overall equality of medians among all groups. If the p-value of the Kruskal-Wallis test is <0.05, we further perform post hoc testing by running Conover's non-parametric test for all pairwise comparisons or for comparing each treatment group with the vehicle group, both with single-step p-value adjustment. All tests were two-sided unless otherwise specified, and p-values<0.05 were regarded as statistically significant. […]

[5] = day 20, against the compound's own vehicle group

Row | SMILES | pIC50 [1] | pEC50 [2] | pEC50 [3] | anti-tumor activity in the xenograft mesothelioma model [4] | Mean Tumor Volume (mm^3) on day 20 ([4]; day 20, 8 mice per group) | T/C (%) [4, 5] [%] | TGI (%) [4, 5] [%]
1 | C=CC(=O)NC1Cc2cccnc2N(c2ccc(C(F)(F)F)cc2)C1 (stereo not drawn) [compound 081, N-(1-(4-(trifluoromethyl)phenyl)-1,2,3,4-tetrahydro-1,8-naphthyridin-3-yl)acrylamide] | > 6.00 | > 6.00 | > 6.00 | – | – | – | –
2 | C=CC(=O)NC1Cc2ccncc2N(c2ccc(C(F)(F)F)cc2)C1 (stereo not drawn) [compound 083, N-(1-(4-(trifluoromethyl)phenyl)-1,2,3,4-tetrahydro-1,7-naphthyridin-3-yl)acrylamide] | > 6.00 | > 6.00 | > 6.00 | – | – | – | –
3 | C=CC(=O)NCC1Cc2ccccc2N(c2ccc(C(F)(F)F)cc2)C1 (stereo not drawn) [compound 084, N-((1-(4-(trifluoromethyl)phenyl)-1,2,3,4-tetrahydroquinolin-3-yl)methyl)acrylamide] | > 6.00 | > 6.00 | – | highly statistically significant and strong anti-tumor activity | 165.82 ± 15.42 (8) mm^3 | 38.95 | 61.05
4 | C=CC(=O)NC1Cc2c(CO)cccc2N(c2ccc(C(F)(F)F)cc2)C1 (stereo not drawn) [compound 139, N-(5-(hydroxymethyl)-1-(4-(trifluoromethyl)phenyl)-1,2,3,4-tetrahydroquinolin-3-yl)acrylamide] | > 6.00 | > 6.00 | > 6.00 | – | – | – | –
5 | C=CC(=O)NC1Cc2ccccc2N(c2ccc(C#N)cc2)C1 (stereo not drawn) [compound 142, N-(1-(4-cyanophenyl)-1,2,3,4-tetrahydroquinolin-3-yl)acrylamide] | > 6.00 | > 6.00 | > 6.00 | – | – | – | –
6 | C=CC(=O)NCC1Cc2ccccc2N([C@H]2CC[C@H](C(F)(F)F)CC2)C1 (stereo partly drawn) [compound 143, trans-N-((1-(4-(trifluoromethyl)cyclohexyl)-1,2,3,4-tetrahydroquinolin-3-yl)methyl)acrylamide] | > 6.00 | > 6.00 | > 6.00 | – | – | – | –
7 | C=CC(=O)NCC1Cc2ccccc2N(c2ccc(C#N)cc2)C1 (stereo not drawn) [compound 147, N-((1-(4-cyanophenyl)-1,2,3,4-tetrahydroquinolin-3-yl)methyl)acrylamide] | > 6.00 | > 6.00 | > 6.00 | – | – | – | –
8 | C=CC(=O)NCC1Cc2ccccc2N(c2ccc(C(F)F)nc2)C1 (stereo not drawn) [compound 149, N-((1-(6-(difluoromethyl)pyridin-3-yl)-1,2,3,4-tetrahydroquinolin-3-yl)methyl)acrylamide] | > 6.00 | 5.00 to 6.00 | 5.00 to 6.00 | – | – | – | –
9 | CC(=O)NCC1Cc2c(N)cccc2N(c2ccc(C(F)(F)F)cc2)C1 (stereo not drawn) [compound 150, N-((5-amino-1-(4-(trifluoromethyl)phenyl)-1,2,3,4-tetrahydroquinolin-3-yl)methyl)acetamide] | > 6.00 | > 6.00 | > 6.00 | – | – | – | –
10 | C=CC(=O)NC1Cc2c(CC#N)cccc2N(c2ccc(C(F)(F)F)cc2)C1 (stereo not drawn) [compound 164, N-(5-(cyanomethyl)-1-(4-(trifluoromethyl)phenyl)-1,2,3,4-tetrahydroquinolin-3-yl)acrylamide] | > 6.00 | > 6.00 | > 6.00 | – | – | – | –
